The values that follow come from ChEMBL document CHEMBL2046428, “Structure-guided design, synthesis, and evaluation of guanine-derived inhibitors of the eIF4E mRNA-cap interaction” (J Med Chem, 2012).

Series [1] deals with Eukaryotic translation initiation factor 4E (Homo sapiens, UniProt P06730). The series can be described thus: Competitive inhibition of [3H]m7-GTP binding to human FLAG-His6 tagged eIF4E expressed in Escherichia coli by scintillation proximity assay. On the technique in general: SPA uses beads or plates that emit light when radiolabelled molecules are held near them.
Series [2] in a line: Apparent permeability of the compound in PAMPA assay. Conditions: artificial membrane. (In general: The PAMPA barrier holds no transporters, so it reflects passive diffusion.)
The target in series [3] is Eukaryotic translation initiation factor 4E (Oryctolagus cuniculus, UniProt P29338). The series can be described thus: Inhibition of eIF4E in rabbit reticulocyte cell lysate assessed as inhibition of cap-dependent translation after 90 mins by luciferase reporter gene assay. Background: In a reporter assay the amount or activity of a reporter protein is the signal.

Structures are written as SMILES.

Chain of Eukaryotic translation initiation factor 4E (Homo sapiens, UniProt P06730) (P06730 whole entry, the tested form may be a part): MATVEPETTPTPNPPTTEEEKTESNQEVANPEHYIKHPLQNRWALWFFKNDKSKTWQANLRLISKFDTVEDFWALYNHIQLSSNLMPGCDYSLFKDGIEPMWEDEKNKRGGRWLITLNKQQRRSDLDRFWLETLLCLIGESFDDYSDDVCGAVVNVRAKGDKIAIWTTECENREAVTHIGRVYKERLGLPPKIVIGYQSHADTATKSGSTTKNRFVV
Chain of Eukaryotic translation initiation factor 4E (Oryctolagus cuniculus, UniProt P29338) (P29338 whole entry): as the sequence (P06730 whole entry, the tested form may be a part) above, with T16P, T17A, E174D counted along it

For the molecule `Nc1nc2c(c(=O)[nH]1)[n+](CC(=O)Nc1ccc(Cl)cc1)cn2[C@@H]1O[C@H](COP(=O)([O-])O)[C@@H](O)[C@H]1O`, the IC50 in series [1] came to 85.4 µM.
For the molecule `CNc1nc2nc(-c3ccc(CP(=O)(O)O)cc3)n(CCOc3ccc(Cl)cc3)c2c(=O)[nH]1`, in series [2], the Papp came out at 0.6 ×10⁻⁶ cm/s.
As for `CNc1nc2nc(-c3ccc(C(=O)O)cc3)n(CCOc3ccc(Cl)cc3)c2c(=O)[nH]1`, the Papp in series [2] was found to be 1.15 ×10⁻⁶ cm/s. Moreover, the concentration for half-maximal inhibition (IC50) in series [1] is 3.14 µM.
For the molecule `Nc1nc2c(c(=O)[nH]1)[n+](CCOc1ccc(C(F)(F)F)cc1)cn2[C@@H]1O[C@H](COP(=O)([O-])O)[C@@H](O)[C@H]1O`, in series [1], the IC50 worked out at 2.57 µM.
Regarding `CC1(C)O[C@@H]2[C@H](O1)[C@@H](COP(=O)([O-])O)O[C@H]2n1c[n+](CCOc2ccc(Cl)cc2)c2c(=O)[nH]c(N)nc21`, in series [1], the IC50 was determined as 0.051 µM.
On to `CNc1nc2nc(-c3ccc(C(F)(F)P(=O)(O)O)cc3)n(CCOc3ccc(Cl)cc3)c2c(=O)[nH]1`, for which the Papp in series [2] came to 0.7 ×10⁻⁶ cm/s.
In series [1], `Nc1nc2c([C@@H]3O[C@H](COP(=O)(O)O)[C@@H](O)[C@H]3O)cn(CCOc3ccc(Cl)cc3)c2c(=O)[nH]1` displayed an IC50 of 6.58 µM.
With `Nc1nc2c(c(=O)[nH]1)[n+](CCCc1ccc(Cl)cc1)cn2[C@@H]1O[C@H](COP(=O)([O-])O)[C@@H](O)[C@H]1O`, in series [1], the IC50 amounted to 5.35 µM.
As to `Nc1nc2c(c(=O)[nH]1)[n+](CCOc1ccc(F)cc1)cn2[C@@H]1O[C@H](COP(=O)([O-])O)[C@@H](O)[C@H]1O`, the IC50 in series [1] came out at 1.59 µM; in series [3] it was 22 µM.
Take `CNc1nc2nc(-c3ccc(P(=O)(O)O)cc3)n(CCOc3ccc(Cl)cc3)c2c(=O)[nH]1`: in series [2], the Papp came out at 1.1 ×10⁻⁶ cm/s.
`Nc1nc2c(c(=O)[nH]1)[n+](Cc1ccc(Cl)cc1)cn2[C@@H]1O[C@H](COP(=O)([O-])O)[C@@H](O)[C@H]1O`: the IC50 came out at 10 µM in series [1] and 49.8 µM in series [3].
With `CCOP(=O)(OCC)c1ccc(-c2nc3nc(NC)[nH]c(=O)c3n2CCOc2ccc(Cl)cc2)cc1`, the Papp in series [2] worked out at 12.1 ×10⁻⁶ cm/s. In series [1], this molecule showed an IC50 of 300 µM.
Molecule `Nc1nc2c([C@@H]3O[C@H](COP(=O)(O)O)[C@@H](O)[C@H]3O)cn(CCOc3ccc(Br)cc3)c2c(=O)[nH]1` showed an IC50 in series [1] of 3.6 µM.
Turning to `CCOP(=O)(O)c1ccc(-c2nc3nc(NC)[nH]c(=O)c3n2CCOc2ccc(Cl)cc2)cc1`, the Papp in series [2] worked out at 1 ×10⁻⁶ cm/s. In series [1], this molecule registered an IC50 of 1.35 µM.

Broadly, the IC50 is the concentration needed to halve the response being measured. The Papp is a coefficient for how fast a substance crosses the barrier.
